{"source": "paper PMC3169616", "about": "“Unique Residues Involved in Activation of the Multitasking Protease/Chaperone HtrA from Chlamydia trachomatis” (PLoS ONE, 2011)", "key": {"CtHtrA [1]": {"target": "T1, CtHtrA (Chlamydia trachomatis serovar D, UniProt P18584)", "T1 construct": "His-tag; made in house; host or cells: E. coli BL21 (DE3), plasmid pETHtrA", "T1 sequence (P18584 17-497)": "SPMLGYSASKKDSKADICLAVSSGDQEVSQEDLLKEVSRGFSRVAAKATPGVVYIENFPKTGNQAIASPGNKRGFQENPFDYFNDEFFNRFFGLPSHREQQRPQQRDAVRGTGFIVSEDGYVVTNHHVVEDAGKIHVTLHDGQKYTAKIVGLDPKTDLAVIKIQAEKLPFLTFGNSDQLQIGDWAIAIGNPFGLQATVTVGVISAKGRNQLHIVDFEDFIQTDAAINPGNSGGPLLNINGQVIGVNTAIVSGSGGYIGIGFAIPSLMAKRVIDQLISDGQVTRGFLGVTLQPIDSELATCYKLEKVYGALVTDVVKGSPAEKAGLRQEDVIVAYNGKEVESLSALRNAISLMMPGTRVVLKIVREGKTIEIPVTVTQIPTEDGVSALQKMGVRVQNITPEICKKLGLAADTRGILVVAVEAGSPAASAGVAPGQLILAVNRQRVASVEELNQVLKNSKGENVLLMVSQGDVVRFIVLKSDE", "assay": "Activation of CtHtrA cleavage of Bcas1 substrate by added activator", "type": "biochemical", "conditions": "substrate Bcas1 (MCA-ENLHLPLPIIF-DNP), fluorimetric, 37°C", "method": "(§1) To determine if the addition of a second peptide to the protease assays could activate or increase CtHtrA proteolysis, two activator peptides were tested in the CtHtrA cleavage of the model ß-casein peptide substrate Bcas1. The first was based on the ß-casein C-terminal sequence (Act1: NH2-VLGPVRGPFPIIV-OH) and the second on insulin b chain C-terminal sequence (Act2: NH2-CGELGFFYTP-OH).\nFinally, in order to determine if the 24-mer (highest amount with MOMP protein, or Act1), or 12-mer, or both, corresponds to enhanced protease activity, the incubations of CtHtrA and these potential in vivo activators were used for protease assays with the Bcas1 substrate (Fig. 6). […] The presence of the majority of CtHtrA as higher order oligomers correlated with an increased rate of proteolysis for CtHtrA, particularly when these oligomers were predominately 24-mers.\nThe purified recombinant protein was examined by Coomassie stained polyacrylamide gels and activity was checked using ß-casein cleavage assays prior to use in peptide assays. Briefly, this involved incubating 2 µg of the protease with 10 µg of ß-casein in 50 mM Tris pH 7.0, 20 mM MgCl2 for 2 h prior to examining the assays by SDS PAGE (ß-casein and protease only controls were always conducted). Protease assays using peptides were conducted using custom synthesised peptides (Mimotopes). […] Protease assays using pNA labelled peptides were conducted using the xMARK Microplate spectrophotometer (Bio-Rad) at 405 nm, incubated at 37°C, with a reading taken every 10 s for 30 min. The maximum slope over a minimum of 8 readings was used for the data analysis. […] The assays were excited at 340 nm and emission was detected at 405 nm with a gain of 1000, the assays were monitored every 20 s or at the minimum cycle time for up to 40 min. […] The assay results shown for the fluorescent compounds have been normalised for the amount of fluorescent emission detected using a standard curve of known concentrations of the MCA fluorophore under the identical assay conditions. […]"}, "CtHtrA [2]": {"target": "T1, CtHtrA", "assay": "Activation of CtHtrA cleavage of pNA peptides by added activator peptide", "type": "biochemical", "conditions": "data not shown", "method": "as §1\nOne explanation for the observation of a lack of activation for some substrates could be that these substrates act as both activators and substrates by binding to both the active and allosteric sites of CtHtrA. In particular, the pNA peptides were not activated, which could imply that the pNA moiety itself may bind at the activation site. […]\nThe purified recombinant protein was examined by Coomassie stained polyacrylamide gels and activity was checked using ß-casein cleavage assays prior to use in peptide assays. […] Protease assays using pNA labelled peptides were conducted using the xMARK Microplate spectrophotometer (Bio-Rad) at 405 nm, incubated at 37°C, with a reading taken every 10 s for 30 min. The maximum slope over a minimum of 8 readings was used for the data analysis. […] The assays were excited at 340 nm and emission was detected at 405 nm with a gain of 1000, the assays were monitored every 20 s or at the minimum cycle time for up to 40 min. […]"}}}
{"substance": "QNIPF", "values": [{"measurement": "effect of activator on rate of CtHtrA proteolysis of Bcas1", "setting": "CtHtrA [1]", "value": "did not activate CtHtrA cleavage of Bcas1"}, {"measurement": "effect of activator peptide on CtHtrA cleavage of pNA peptides", "setting": "CtHtrA [2]", "value": "did activate the cleavage of some of the pNA peptides tested"}]}
